The source of these data is PubChem BioAssay (NCI).

Among the test systems are DMS 273 small cell lung; XF 498 CNS; LXFL 529 NSCLC; HOP-18 NSCLC; KM20L2 colon; M19-MEL melanoma; RXF-631 renal; DLD-1 colon; P388 leukemia; P388/ADR leukemia; SN12K1 renal.
Assay in all cases: NCI tumour cell line growth inhibition, 48 h

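Protocol summary: plate cells (96-well), add compound at 5 concentrations, incubate 48 h, interpolate endpoints linearly. TGI: total growth inhibition.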 Some results are limits rather than exact numbers.

Turning to `CN(C)CC1CCC(CN(C)C)C1=O` (configuration not stated), the TGI in the experiment on DMS 273 small cell lung stood at 36.7 µM; in the experiment with XF 498 CNS it was 10.3 µM; in the experiment with LXFL 529 NSCLC, 2.96 µM; in the experiment with HOP-18 NSCLC it was 33.2 µM; in the experiment on KM20L2 colon, 38 µM; in the experiment on M19-MEL melanoma, 7.96 µM.
On to `CCCSc1nc(-c2ccc(OC)cc2)c(C#N)c(=O)n1C1OC(COC(C)=O)C(OC(C)=O)C(OC(C)=O)C1OC(C)=O` (configuration not stated), for which the TGI in the experiment on LXFL 529 NSCLC, in the experiment with KM20L2 colon and in the experiment on M19-MEL melanoma was over 100 µM in each case.
`CN(C)CCC(=O)/C=C\c1ccccc1`: the TGI in the experiment with DMS 273 small cell lung is 33.7 µM; with XF 498 CNS it was 28.4 µM; with LXFL 529 NSCLC, 26.9 µM; with HOP-18 NSCLC, 43.5 µM; in the experiment on RXF-631 renal it was 60.4 µM; in the experiment on KM20L2 colon it was 86.1 µM. The TGI with M19-MEL melanoma stood at 37.4 µM; in the experiment on DLD-1 colon it was 31.8 µM.
`CN(C)CCNC(=O)c1cccc2nc(-c3ccccc3)oc12`: the TGI in the experiment with P388 leukemia was 20.3 µM; with P388/ADR leukemia, over 64.3 µM; with XF 498 CNS it was over 91.9 µM; with HOP-18 NSCLC, over 100 µM; in the experiment with SN12K1 renal, over 75.5 µM; in the experiment with KM20L2 colon it was over 100 µM. Moreover, the TGI in the experiment with M19-MEL melanoma was 99.5 µM; with DLD-1 colon it was over 100 µM.
Regarding `CC(=O)OCc1c(O)c2c(c(O)c1COC(C)=O)C(=O)C=CC2=O`, the TGI with DMS 273 small cell lung is 34.3 µM; in the experiment with LXFL 529 NSCLC it was 10.4 µM; in the experiment with HOP-18 NSCLC, 35.8 µM; in the experiment with KM20L2 colon it was 32.7 µM; in the experiment on M19-MEL melanoma it was 3.54 µM.
As to `CCOC(=O)/C(O)=C1\C(=O)N(C)C(=O)C1c1cccc(OC)c1` (configuration not stated), the TGI with P388 leukemia, in the experiment with DMS 273 small cell lung, with P388/ADR leukemia, in the experiment on XF 498 CNS, in the experiment on HOP-18 NSCLC and in the experiment on SN12K1 renal was over 100 µM each time. Also, the TGI with KM20L2 colon, in the experiment with M19-MEL melanoma and with DLD-1 colon was over 100 µM each time.
Turning to `C=C(CN(C)C)C(=O)c1ccccc1[N+](=O)[O-]`, the TGI with DMS 273 small cell lung was 33.7 µM; with XF 498 CNS, 31.2 µM; with LXFL 529 NSCLC, 30.3 µM; with HOP-18 NSCLC, 32.7 µM; with RXF-631 renal, 34.4 µM; with KM20L2 colon, over 54.2 µM. Also, the TGI amounted to 32 µM with M19-MEL melanoma and 29.5 µM in the experiment on DLD-1 colon.
